{"source": "patent US11510931B2", "about": "“Compositions and methods for treating ophthalmic conditions” (MEDICON PHARMACEUTICALS, INC., priority 2016, dated 2022)", "key": {"[1]": {"test_system": "cataract surgery plus LPS-induced ocular inflammation in rabbits", "assay": "Ocular inflammation after cataract surgery plus intravitreal LPS in rabbits", "assay_type": "in vivo, rabbit", "conditions": "PS 3.5% in nanoparticles", "procedure": "The anti-inflammatory effect of PS in New Zealand white rabbits was evaluated following cataract surgery and administration of the proinflammatory bacterial lipopolysaccharide (LPS). Briefly, the lens was removed by phacoemulsification and aspiration and replaced with the hydrophobic acrylic intraocular lens (AR40e, AMO). Upon completion of the operation, 1 μg of LPS dissolved in 10 μl PBS was injected into the vitreous to induce uveitis.\nRabbits were treated with PS 3.5% formulated in nanoparticles or vehicle (nanoparticles without PS) applied topically as eye drops three times per day. The first application was made within 1 h after completion of surgery. The rabbits were examined daily and the aqueous humor (AH) was sampled by needle aspiration on days 1, 3, and 5 following the injection of LPS. The number of infiltrating cells in the AH was determined following standard methods. On day 5, the rabbits were euthanized and the implanted lens was removed and fixed in 2.5% glutaraldehyde and the number of inflammatory cells attached to the lens was examined under a dissecting microscope."}, "[2]": {"test_system": "chorioallantoic membrane (CAM)", "assay": "Chorioallantoic membrane (CAM) neovascularization assay", "assay_type": "in vivo, chicken", "conditions": "day 4; for # of new vessels: Mean ± SEM", "procedure": "Second, the effect of PS on new vessel formation (neovascularization) was evaluated using the chorioallantoic membrane (CAM) assay. In this assay, fertilized white chicken eggs (SPF Premium, Charles River Laboratory, North Franklin, Conn.) were incubated at 37° C. in 70% humidity for 3 days. The embryos were then incubated ex vivo in a sterile Petri dish for 7 days. Gelatin sponges adsorbed with or without VEGF plus PS or water (vehicle control) were implanted on the CAM surface and the neovasculature was counted on day 4 post implantation under a dissecting microscope."}, "VEGF": {"test_system": "VEGF", "assay": "VEGF immunohistochemistry in inferior lacrimal gland of rabbits with DED", "assay_type": "in vivo, rabbit", "conditions": "PS 3.5% eye drops three times per day, 1 week, vs vehicle", "procedure": "Rabbits with ConA-induced dry eye disease (n=8 eyes/group) were treated with PS 3.5% eye drops three times per day or vehicle for 1 week. […] Immunohistochemistry for VEGF was performed on tissue sections and VEGF positive vessels were counted. PS reduced the number of VEGF positive cells by 73% bringing it to nearly normal values (the level in naïve rabbits)"}, "MMP-1 (collagenase I)": {"target": "T1, MMP-1 (collagenase I) (Homo sapiens, UniProt P03956)", "T1 sequence (P03956 100-469)": "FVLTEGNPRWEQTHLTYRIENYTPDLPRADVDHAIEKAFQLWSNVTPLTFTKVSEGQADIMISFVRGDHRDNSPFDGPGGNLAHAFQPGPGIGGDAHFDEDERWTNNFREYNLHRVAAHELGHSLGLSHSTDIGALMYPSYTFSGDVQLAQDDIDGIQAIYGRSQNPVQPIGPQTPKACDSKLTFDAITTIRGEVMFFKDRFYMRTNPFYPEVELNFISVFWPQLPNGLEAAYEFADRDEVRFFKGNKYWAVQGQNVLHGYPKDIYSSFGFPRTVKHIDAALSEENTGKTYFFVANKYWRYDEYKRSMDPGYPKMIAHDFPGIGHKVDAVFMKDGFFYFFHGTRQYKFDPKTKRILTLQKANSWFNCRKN", "assay": "In vitro collagenase activity assay with purified MMP-1", "assay_type": "biochemical", "conditions": "purified MMP-1 (collagenase I)", "procedure": "In an in vitro assay with purified MMP-1 (collagenase I) as […] it was shown that PS inhibited collagenase activity with an IC50 of <100 nM. In cultured human conjunctiva cells, PS suppressed MMP-1 by 75%-86%. In the lacrimal glands of rabbits with DED treated with PS eye drops, PS suppressed MMP-9 levels by 27% compared to vehicle treated rabbits (2.20±0.24 vs. 1.66±0.20 ng/mg protein; p<0.05; mean±SEM)."}, "MMPs": {"test_system": "MMPs", "assay": "General MMP activity in rabbit cornea (FRET peptide)", "assay_type": "in vivo", "procedure": "The general activity of MMPs was determined in the corneas of three groups of rabbits. This MMP activity assay employs a fluorescence resonance energy transfer (FRET) peptide as a generic MMP indicator. Rabbits were treated with PS 1.6% or ketorolac 0.5% eye drops topically applied to their eyes or were not treated (naïve group). Results in relative fluorescence units (RFU)/mg protein (mean±SEM). Naïve=1,328±123; PS=749±218; Ketoroloac=1,272±106 (p<0.03 vs PS).\nIn an acute experiment, naïve rabbits were treated with either PS or ketorolac (both administered topically) for 1 h and determined the activity of MMP in the cornea. This assay determines the activity of MMPs collectively in a given tissue."}, "[3]": {"assay": "Biodistribution of PS in human eyes (ex vivo)", "assay_type": "in vitro ADME", "conditions": "human eye ex vivo, 10 min contact, 60 min incubation", "procedure": "Biodistribution of PS in human eyes (ex vivo): Human cadaveric eyes were obtained through the Lions Eye Bank for Long Island, Valley Stream, NY. They were preserved on ice and used within 2 h from removal from the donors.\nThe anterior surface of the human eye (corresponding to an area slightly larger than the palpebral fissure) was brought into direct contact with a PS HP-β-CD solution (PS concentration at 0.5%, 2.0% and 3.3%) and incubated for 10 min at 37° C. The eye was then rinsed with 10% dimethylsulfoxide (DMSO) to remove residual PS from the surface of the eye and incubated in PBS for 60 min. […] At the specified times, ocular tissues were dissected and PS levels determined by HPLC. The Table below summarizes the findings."}}, "data": [{"smiles": "CCOP(=O)(OCC)OCCCCOC(=O)CC1=C(C)/C(=C/c2ccc([S+](C)[O-])cc2)c2ccc(F)cc21", "note": "(stereo not shown) [PS, phosphosulindac]", "values": [{"measurement": "ocular inflammation (clinical appearance)", "setting": "[1]; eye drops three times per day, first 24 h of treatment, FIG. 13", "value": "essentially eliminated"}, {"measurement": "number of inflammatory cells in aqueous humor (AH)", "setting": "[1]; day 3, eye drops three times per day, FIG. 14", "value": "< 70000", "unit": "mL⁻¹"}, {"measurement": "inflammatory cells attached to the implanted lens", "setting": "[1]; day 5", "value": "very few or no cells"}, {"measurement": "inhibition at 16 µM", "setting": "[2]; Gallus gallus, 96 h, VEGF + PS 16 μM", "value": 26, "unit": "%"}, {"measurement": "inhibition at 50 µM", "setting": "[2]; Gallus gallus, 96 h, VEGF + PS 50 μM", "value": 34, "unit": "%"}, {"measurement": "neovascularization % inhibition", "setting": "[2]; PS 50 μM without VEGF", "value": "29 (P < 0.016) %"}, {"measurement": "# of new vessels", "setting": "[2]; PS 50 μM without VEGF", "value": "41 ± 3.2"}, {"measurement": "# of new vessels", "setting": "[2]; VEGF + PS 16 μM", "value": "46.4 ± 1.5"}, {"measurement": "# of new vessels", "setting": "[2]; VEGF + PS 50 μM", "value": "41.4 ± 1.0"}, {"measurement": "reduction of the number of VEGF positive cells", "setting": "VEGF", "value": 73, "unit": "%"}, {"measurement": "IC50", "setting": "MMP-1 (collagenase I)", "value": "< 100", "unit": "nM"}, {"measurement": "suppression of the activity of MMPs in the cornea", "setting": "MMPs; naïve rabbits, topical, 1 h", "value": 43, "unit": "%"}, {"measurement": "general activity of MMPs in the corneas", "setting": "MMPs; rabbits, PS 1.6% or ketorolac 0.5% eye drops, mean±SEM", "value": "749±218", "unit": "RFU/mg protein"}, {"measurement": "PS in Aqueous", "setting": "[3]; 0.5% PS HP-β-CD solution", "value": 2.4, "unit": "µM"}, {"measurement": "PS in Choroid", "setting": "[3]; 0.5% PS HP-β-CD solution", "value": 28.5, "unit": "µM"}, {"measurement": "PS in Cornea", "setting": "[3]; 0.5% PS HP-β-CD solution", "value": 187.2, "unit": "µM"}, {"measurement": "PS in Iris", "setting": "[3]; 0.5% PS HP-β-CD solution", "value": 25.6, "unit": "µM"}, {"measurement": "PS in Lens", "setting": "[3]; 0.5% PS HP-β-CD solution", "value": 0.6, "unit": "µM"}, {"measurement": "PS in Retina", "setting": "[3]; 0.5% PS HP-β-CD solution", "value": 2.9, "unit": "µM"}, {"measurement": "PS in Sclera", "setting": "[3]; 0.5% PS HP-β-CD solution", "value": 381.3, "unit": "µM"}, {"measurement": "PS in Vitreous", "setting": "[3]; 0.5% PS HP-β-CD solution", "value": 0.3, "unit": "µM"}, {"measurement": "PS in Cornea", "setting": "[3]; 2.0% PS HP-β-CD solution", "value": 397.7, "unit": "µM"}, {"measurement": "PS in Iris", "setting": "[3]; 2.0% PS HP-β-CD solution", "value": 34.2, "unit": "µM"}, {"measurement": "PS in Lens", "setting": "[3]; 2.0% PS HP-β-CD solution", "value": 1.4, "unit": "µM"}, {"measurement": "PS in Retina", "setting": "[3]; 2.0% PS HP-β-CD solution", "value": 38.7, "unit": "µM"}, {"measurement": "PS in Sclera", "setting": "[3]; 2.0% PS HP-β-CD solution", "value": 870.9, "unit": "µM"}, {"measurement": "PS in Aqueous", "setting": "[3]; 3.3% PS HP-β-CD solution", "value": 19.5, "unit": "µM"}, {"measurement": "PS in Choroid", "setting": "[3]; 3.3% PS HP-β-CD solution", "value": 261.4, "unit": "µM"}, {"measurement": "PS in Cornea", "setting": "[3]; 3.3% PS HP-β-CD solution", "value": 266.4, "unit": "µM"}, {"measurement": "PS in Iris", "setting": "[3]; 3.3% PS HP-β-CD solution", "value": 169.3, "unit": "µM"}, {"measurement": "PS in Lens", "setting": "[3]; 3.3% PS HP-β-CD solution", "value": 1.9, "unit": "µM"}, {"measurement": "PS in Retina", "setting": "[3]; 3.3% PS HP-β-CD solution", "value": 48.5, "unit": "µM"}, {"measurement": "PS in Sclera", "setting": "[3]; 3.3% PS HP-β-CD solution", "value": "2,596.6 μM"}, {"measurement": "PS in Vitreous", "setting": "[3]; 3.3% PS HP-β-CD solution", "value": 4.3, "unit": "µM"}]}]}
